# Test results reported in US20250236840A1, “SELECTIVE EXPANSION OF DIFFERENT SUBPOPULATIONS OF T CELLS BY THE ALTERATION OF CELL SURFACING SIGNALS AND SIGNAL RATIO” (LIFE TECHNOLOGIES AS, priority 2015, published 2025).
# Tested on: T cells
# Assay: Effect of AHR agonist on Th17 polarization (intracellular IL-17 after PMA/Ionomycin)
# Assay type: cell-based, human
# Method: FIG. 8. T cells were activated with CD3/CD5 (upper) or CD3/ICOS (lower) figure and expanded in presence of standard Th17-polarizing cytokines/antibodies (cytokines package), or with 100 nM FICZ and IL-1B and IL-6. At day 13 cultures were stimulated with PMA/Ionomycin for 4-5 hours before assessment of IL-17A and IL-17F expression. Cytograms show intracellular expression of the cytokines.
# Protocol permutation: T cells were activated with DYNABEADS® CD3/CD5, DYNABEADS® CD3/ICOS, or DYNABEADS® CD3/CD28 with equal signal strength and stoichiometry. Th17 polarization was facilitated by addition of i) cytokines (TGF-β, IL-23, IL-6, IL-1B) and αIL-4/α-IFN-γ neutralizing antibodies or ii) the AHR agonist FICZ plus IL-6, IL-1βa. Th17 polarization was assessed by intracellular staining of IL-17 and IFN-γ following PMA/Ionomycin activation of polarized T cells (FIG. 8).
smiles,measurement,setting,value
"O=Cc1c2c(cc3c1=Nc1ccccc1-3)=Nc1ccccc1-2 [FICZ, 6-formylindolo [3,2-b]carbazole]",Activity on T cells costimulated through CD5,"100 nM FICZ plus IL-1β and IL-6, CD3/CD5 beads, day 13",promising activity
same,Activity on T cells costimulated through ICOS,"100 nM FICZ plus IL-1β and IL-6, CD3/ICOS beads, day 13",not
same,IL-17 producing cells compared to standard polarizing conditions,"FICZ, IL-1β and IL-6 protocol",fewer
